Results: patent US20070276025A1, “Indirubin-Type Compounds, Compositions, and Methods for Their Use” (priority 2003, published 2007)
Like-named read-outs stand apart in the source and are kept apart here.

How the values were obtained:
CDK1/cyclin B = CDK1/cyclin B kinase assay (histone H1, 15 μM ATP); assay type: biochemical, starfish (Marthasterias glacialis)
AhR = target: T1, AhR (Mus musculus, UniProt P30561); settings: read-out: EC50 AhR (hepatoma cell line); Table 4; EGFP at 24 hours
T1 sequence (P30561 1-848): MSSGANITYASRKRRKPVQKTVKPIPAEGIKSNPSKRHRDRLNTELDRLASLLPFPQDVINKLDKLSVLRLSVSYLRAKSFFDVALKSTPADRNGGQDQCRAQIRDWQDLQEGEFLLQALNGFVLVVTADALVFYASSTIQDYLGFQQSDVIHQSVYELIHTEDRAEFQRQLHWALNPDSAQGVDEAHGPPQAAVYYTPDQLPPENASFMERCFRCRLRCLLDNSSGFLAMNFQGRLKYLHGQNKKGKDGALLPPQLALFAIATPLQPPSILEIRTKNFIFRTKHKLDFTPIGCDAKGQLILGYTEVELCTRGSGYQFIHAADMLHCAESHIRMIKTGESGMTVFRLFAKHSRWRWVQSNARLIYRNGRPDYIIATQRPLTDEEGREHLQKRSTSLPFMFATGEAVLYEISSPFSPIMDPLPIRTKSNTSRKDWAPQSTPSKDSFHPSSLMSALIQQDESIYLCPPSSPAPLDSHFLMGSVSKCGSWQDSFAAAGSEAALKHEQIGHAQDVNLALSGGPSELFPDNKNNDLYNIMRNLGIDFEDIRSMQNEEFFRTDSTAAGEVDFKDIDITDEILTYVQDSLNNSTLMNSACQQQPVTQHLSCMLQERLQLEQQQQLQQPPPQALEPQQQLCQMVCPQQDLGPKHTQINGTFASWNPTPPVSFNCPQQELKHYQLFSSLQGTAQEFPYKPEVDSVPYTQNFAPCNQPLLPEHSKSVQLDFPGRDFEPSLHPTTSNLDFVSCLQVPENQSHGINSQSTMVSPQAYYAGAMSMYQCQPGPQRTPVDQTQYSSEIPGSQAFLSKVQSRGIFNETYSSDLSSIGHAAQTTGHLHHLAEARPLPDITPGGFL

erk1 = erk1 (Homo sapiens, UniProt P27361); assay: erk1 kinase assay; settings: read-out: IC50 erk1; Table 2, 15 μM ATP
erk1, sequence (P27361 whole entry, species assumed): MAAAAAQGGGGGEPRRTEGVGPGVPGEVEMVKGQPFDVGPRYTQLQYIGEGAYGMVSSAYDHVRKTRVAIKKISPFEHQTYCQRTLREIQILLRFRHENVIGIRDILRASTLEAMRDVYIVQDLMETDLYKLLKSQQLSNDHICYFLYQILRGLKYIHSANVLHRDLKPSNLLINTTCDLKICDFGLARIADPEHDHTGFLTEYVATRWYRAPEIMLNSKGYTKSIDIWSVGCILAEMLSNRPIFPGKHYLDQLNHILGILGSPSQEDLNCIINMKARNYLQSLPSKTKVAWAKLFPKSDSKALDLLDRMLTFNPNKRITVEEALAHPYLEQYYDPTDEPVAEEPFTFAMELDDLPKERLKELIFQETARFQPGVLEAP

erk2 = erk2 (Homo sapiens, UniProt P28482); assay: erk2 kinase assay; settings: read-out: IC50 erk2; Table 2, 15 μM ATP
erk2, sequence (P28482 whole entry, species assumed): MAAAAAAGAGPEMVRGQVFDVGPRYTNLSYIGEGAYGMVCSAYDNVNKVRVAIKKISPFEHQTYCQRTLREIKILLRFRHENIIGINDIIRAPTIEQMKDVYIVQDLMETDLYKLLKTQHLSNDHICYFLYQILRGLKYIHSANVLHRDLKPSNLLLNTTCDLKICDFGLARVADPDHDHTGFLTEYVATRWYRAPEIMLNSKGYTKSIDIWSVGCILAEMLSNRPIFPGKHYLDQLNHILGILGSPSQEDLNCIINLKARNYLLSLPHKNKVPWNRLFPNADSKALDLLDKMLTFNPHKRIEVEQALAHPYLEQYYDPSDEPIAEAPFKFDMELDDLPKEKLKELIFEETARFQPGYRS

casein kinase 2 = casein kinase 2 assay; settings: read-out: IC50 casein kinase 2; Table 2, 15 μM ATP
protein kinase C ε = target: T2, protein kinase C ε (Homo sapiens, UniProt Q02156); assay: protein kinase C ε assay; settings: read-out: IC50 protein kinase C ε; Table 2, 15 μM ATP
T2 sequence (Q02156 1-737): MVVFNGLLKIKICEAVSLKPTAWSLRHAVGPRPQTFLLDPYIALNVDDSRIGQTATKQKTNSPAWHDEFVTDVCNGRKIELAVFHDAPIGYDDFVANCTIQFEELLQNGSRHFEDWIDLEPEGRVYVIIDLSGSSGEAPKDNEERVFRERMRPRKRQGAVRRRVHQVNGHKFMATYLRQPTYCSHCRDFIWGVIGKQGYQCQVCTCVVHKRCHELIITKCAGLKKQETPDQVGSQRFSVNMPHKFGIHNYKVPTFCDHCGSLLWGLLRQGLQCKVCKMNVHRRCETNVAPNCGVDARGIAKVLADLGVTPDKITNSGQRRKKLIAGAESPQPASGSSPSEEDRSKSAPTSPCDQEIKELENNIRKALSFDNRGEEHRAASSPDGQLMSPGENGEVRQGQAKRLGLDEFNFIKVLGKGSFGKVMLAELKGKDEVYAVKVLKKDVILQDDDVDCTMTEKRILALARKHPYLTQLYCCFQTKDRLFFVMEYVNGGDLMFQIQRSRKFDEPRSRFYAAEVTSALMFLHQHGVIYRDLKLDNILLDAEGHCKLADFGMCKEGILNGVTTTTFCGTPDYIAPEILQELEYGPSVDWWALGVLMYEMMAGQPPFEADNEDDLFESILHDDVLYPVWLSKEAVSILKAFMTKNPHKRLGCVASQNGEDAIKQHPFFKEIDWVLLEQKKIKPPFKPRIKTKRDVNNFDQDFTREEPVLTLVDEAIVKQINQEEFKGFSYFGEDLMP

protein kinase C ζ = target: T3, protein kinase C ζ (Homo sapiens, UniProt Q05513); assay: protein kinase C ζ assay; settings: read-out: IC50 protein kinase C ζ; Table 2, 15 μM ATP
T3 sequence (Q05513 1-592): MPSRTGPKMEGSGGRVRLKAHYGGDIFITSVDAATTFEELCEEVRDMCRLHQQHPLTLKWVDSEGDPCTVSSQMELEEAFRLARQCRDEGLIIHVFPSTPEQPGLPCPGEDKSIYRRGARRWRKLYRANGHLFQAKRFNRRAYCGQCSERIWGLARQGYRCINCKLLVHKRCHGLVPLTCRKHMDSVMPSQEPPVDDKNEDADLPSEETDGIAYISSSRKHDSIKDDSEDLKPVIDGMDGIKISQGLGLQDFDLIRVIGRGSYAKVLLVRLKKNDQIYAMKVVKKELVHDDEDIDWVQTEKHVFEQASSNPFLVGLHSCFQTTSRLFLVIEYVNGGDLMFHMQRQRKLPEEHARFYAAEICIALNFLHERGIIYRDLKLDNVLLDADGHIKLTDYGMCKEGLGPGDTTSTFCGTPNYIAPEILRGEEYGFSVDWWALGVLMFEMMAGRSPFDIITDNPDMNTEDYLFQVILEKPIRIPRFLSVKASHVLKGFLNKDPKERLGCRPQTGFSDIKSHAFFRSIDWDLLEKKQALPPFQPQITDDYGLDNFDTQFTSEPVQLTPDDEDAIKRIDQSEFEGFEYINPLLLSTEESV

protein kinase C β2 = protein kinase C β2 (Homo sapiens, UniProt P05771); assay: protein kinase C β2 assay; settings: read-out: IC50 protein kinase C β2; Table 2, 15 μM ATP
protein kinase C β2, sequence (P05771 1-673 isoform P05771-2): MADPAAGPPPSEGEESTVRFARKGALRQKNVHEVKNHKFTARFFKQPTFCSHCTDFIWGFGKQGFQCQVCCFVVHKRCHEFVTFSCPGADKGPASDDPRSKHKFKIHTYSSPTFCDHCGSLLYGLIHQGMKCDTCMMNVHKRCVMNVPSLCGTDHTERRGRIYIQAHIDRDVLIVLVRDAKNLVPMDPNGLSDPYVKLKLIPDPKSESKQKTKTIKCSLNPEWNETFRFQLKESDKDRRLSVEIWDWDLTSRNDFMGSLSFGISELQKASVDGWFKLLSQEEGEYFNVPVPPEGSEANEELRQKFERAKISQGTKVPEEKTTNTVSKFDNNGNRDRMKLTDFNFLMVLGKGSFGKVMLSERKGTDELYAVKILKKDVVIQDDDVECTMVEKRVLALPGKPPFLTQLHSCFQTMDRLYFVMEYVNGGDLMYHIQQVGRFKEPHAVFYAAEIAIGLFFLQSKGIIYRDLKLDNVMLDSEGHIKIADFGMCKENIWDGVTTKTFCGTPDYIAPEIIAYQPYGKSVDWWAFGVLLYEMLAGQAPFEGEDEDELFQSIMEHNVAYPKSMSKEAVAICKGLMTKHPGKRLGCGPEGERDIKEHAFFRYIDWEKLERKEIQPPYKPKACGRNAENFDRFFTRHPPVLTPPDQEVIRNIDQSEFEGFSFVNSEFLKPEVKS

[1] = Solubility (qualitative remark); settings: relative to parent indirubins / 3′-oximes
[2] = target: insulin receptor Tyr kinase; assay: insulin receptor Tyr kinase assay; settings: read-out: IC50 insulin receptor Tyr kinase; Table 2, 15 μM ATP
[3] = Table 1, read-out: IC50 CDK1/cyclin B
[4] = Table 2, 15 μM ATP, read-out: IC50 CDK1/cyclin B
[5] = Table 4, read-out: IC50 CDK1/cycin B
[6] = Table 5, read-out: IC50 CDK1/cyclin B

## CC(=O)ON=C1C(=C2C(=O)Nc3cc(Br)ccc32)Nc2ccccc21 [8a, 6-Bromoindirubin-3′-acetoxime]
CDK1/cyclin B; [3]
  IC50: 63 µM
CDK1/cyclin B; [4]
  IC50: 63 µM
CDK1/cyclin B; [5]
  IC50: 63 µM
CDK1/cyclin B; [6]
  IC50: 63 µM
AhR
  EC50: 160 nM
erk1
  IC50: > 10 µM
erk2
  IC50: > 10 µM
Casein kinase 2
  IC50: > 10 µM
Protein kinase C ε
  IC50: > 10 µM
Protein kinase C ζ
  IC50: > 10 µM
Protein kinase C β2
  IC50: > 10 µM
[1]
  solubility (in words): less soluble
[2]
  IC50: > 10 µM

## CON=C1C(=C2C(=O)Nc3cc(Br)ccc32)Nc2ccccc21 [9a, 6-Bromoindirubin-3′-methoxime]
CDK1/cyclin B; [3]
  IC50: 3.4 µM
CDK1/cyclin B; [4]
  IC50: 3.4 µM
CDK1/cyclin B; [5]
  IC50: 3.4 µM
CDK1/cyclin B; [6]
  IC50: 3.7 µM
AhR
  EC50: 30 nM
erk1
  IC50: > 10 µM
erk2
  IC50: > 10 µM
Casein kinase 2
  IC50: 9 µM
Protein kinase C ε
  IC50: > 10 µM
Protein kinase C ζ
  IC50: > 10 µM
Protein kinase C β2
  IC50: > 10 µM
[1]
  solubility (in words): less soluble
[2]
  IC50: > 10 µM

## O=C1Nc2ccccc2/C1=C1/Nc2ccccc2/C1=N\O [7h, indirubin-3′-oxime]
AhR
  EC50: 720 nM
[1]
  solubility (in words): increased solubility
